Key:
[1] = target: T1, 5-hydroxytryptamine receptor 1A (Homo sapiens, UniProt P08908)
T1 sequence (P08908 whole entry): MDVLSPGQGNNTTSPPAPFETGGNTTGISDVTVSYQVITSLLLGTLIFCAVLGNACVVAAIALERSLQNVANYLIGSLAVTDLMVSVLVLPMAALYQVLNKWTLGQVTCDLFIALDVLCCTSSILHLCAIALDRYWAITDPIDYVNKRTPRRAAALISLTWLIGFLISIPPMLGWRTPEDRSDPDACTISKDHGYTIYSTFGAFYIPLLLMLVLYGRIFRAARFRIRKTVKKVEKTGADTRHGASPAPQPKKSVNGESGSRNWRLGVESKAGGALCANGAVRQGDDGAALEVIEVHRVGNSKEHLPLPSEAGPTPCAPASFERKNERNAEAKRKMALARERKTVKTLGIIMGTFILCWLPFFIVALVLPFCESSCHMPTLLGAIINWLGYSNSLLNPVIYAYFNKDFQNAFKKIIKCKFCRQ

[2] = target: 5-hydroxytryptamine receptor 7 (Homo sapiens, UniProt P34969)
Sequence of 5-hydroxytryptamine receptor 7 (P34969 whole entry): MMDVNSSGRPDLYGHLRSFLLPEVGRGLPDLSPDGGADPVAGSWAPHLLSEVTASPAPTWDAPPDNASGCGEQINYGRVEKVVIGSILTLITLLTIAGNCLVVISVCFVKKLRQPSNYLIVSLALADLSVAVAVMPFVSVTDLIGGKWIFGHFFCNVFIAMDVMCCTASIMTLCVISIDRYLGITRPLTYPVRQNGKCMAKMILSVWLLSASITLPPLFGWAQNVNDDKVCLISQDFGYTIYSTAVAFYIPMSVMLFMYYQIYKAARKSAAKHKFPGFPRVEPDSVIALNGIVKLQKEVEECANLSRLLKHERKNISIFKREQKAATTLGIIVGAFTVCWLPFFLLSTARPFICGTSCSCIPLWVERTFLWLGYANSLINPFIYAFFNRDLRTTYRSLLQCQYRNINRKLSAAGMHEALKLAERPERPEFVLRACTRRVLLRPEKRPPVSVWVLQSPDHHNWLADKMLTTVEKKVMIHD

[3] = target: Voltage-gated inwardly rectifying potassium channel KCNH2 (Homo sapiens, UniProt Q12809)
Sequence of Voltage-gated inwardly rectifying potassium channel KCNH2 (Q12809 whole entry): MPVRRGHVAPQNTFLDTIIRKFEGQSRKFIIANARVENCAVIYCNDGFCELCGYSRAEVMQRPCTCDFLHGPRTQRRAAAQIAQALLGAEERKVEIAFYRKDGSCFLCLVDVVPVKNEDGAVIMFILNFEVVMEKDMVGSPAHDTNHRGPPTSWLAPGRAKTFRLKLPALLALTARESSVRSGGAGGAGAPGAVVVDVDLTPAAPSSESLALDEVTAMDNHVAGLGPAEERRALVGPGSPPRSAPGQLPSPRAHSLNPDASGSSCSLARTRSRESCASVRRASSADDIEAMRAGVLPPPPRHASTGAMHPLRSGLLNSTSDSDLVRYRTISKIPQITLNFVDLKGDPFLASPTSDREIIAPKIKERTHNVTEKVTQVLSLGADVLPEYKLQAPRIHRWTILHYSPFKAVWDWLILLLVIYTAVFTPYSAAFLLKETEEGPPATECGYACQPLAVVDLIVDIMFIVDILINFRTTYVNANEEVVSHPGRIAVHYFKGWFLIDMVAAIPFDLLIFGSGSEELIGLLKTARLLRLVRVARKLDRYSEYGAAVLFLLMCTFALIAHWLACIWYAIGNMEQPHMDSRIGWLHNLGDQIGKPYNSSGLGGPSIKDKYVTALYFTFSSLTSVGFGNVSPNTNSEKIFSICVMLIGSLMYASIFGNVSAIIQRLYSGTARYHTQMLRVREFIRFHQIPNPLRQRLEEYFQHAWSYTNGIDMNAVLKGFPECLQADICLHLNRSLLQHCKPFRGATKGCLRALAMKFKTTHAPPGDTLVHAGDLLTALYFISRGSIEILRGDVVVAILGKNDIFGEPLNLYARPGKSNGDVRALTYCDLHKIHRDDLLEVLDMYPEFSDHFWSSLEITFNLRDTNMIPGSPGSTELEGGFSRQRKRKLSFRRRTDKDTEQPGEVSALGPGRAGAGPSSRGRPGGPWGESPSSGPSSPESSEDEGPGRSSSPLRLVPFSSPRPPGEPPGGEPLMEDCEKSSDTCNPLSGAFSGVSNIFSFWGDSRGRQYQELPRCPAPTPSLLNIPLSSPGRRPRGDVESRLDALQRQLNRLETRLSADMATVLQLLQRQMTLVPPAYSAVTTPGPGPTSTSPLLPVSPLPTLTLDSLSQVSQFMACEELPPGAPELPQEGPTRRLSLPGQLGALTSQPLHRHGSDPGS

in vitro [4] = settings: human, liver microsomes
in vitro [5] = settings: mouse, liver microsomes
hERG (KCNH2) = hERG (KCNH2) (Homo sapiens, UniProt Q12809); assay: in vitro; settings: HEK293 cells that express hERG
Sequence of hERG (KCNH2) (Q12809 whole entry): as above

[6] = target: Sodium-dependent serotonin transporter (Homo sapiens, UniProt P31645); assay type: cell-based, HEK293
Sequence of Sodium-dependent serotonin transporter (P31645 whole entry): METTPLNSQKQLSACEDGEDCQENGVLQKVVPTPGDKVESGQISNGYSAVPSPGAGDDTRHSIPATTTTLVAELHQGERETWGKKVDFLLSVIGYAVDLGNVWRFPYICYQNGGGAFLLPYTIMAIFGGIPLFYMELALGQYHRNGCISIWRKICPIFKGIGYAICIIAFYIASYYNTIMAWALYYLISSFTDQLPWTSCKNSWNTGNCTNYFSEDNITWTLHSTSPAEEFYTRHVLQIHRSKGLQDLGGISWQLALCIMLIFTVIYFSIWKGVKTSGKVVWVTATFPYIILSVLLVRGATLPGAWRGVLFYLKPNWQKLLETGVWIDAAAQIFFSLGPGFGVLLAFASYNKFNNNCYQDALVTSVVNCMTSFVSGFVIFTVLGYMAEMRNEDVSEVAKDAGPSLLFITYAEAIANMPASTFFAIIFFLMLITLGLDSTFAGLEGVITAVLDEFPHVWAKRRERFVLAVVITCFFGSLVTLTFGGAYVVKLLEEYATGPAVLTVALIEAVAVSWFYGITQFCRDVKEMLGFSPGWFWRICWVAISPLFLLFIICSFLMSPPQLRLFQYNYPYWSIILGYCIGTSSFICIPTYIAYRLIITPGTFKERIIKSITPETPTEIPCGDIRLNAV

Row | SMILES | Ki [1] [nM] | IC50 [3] [nM] | microsomal CLint at 1 µM (in vitro [4]) [µL/min/mg] | microsomal CLint at 1 µM (in vitro [5]) [µL/min/mg] | inhibition at 1 µM (hERG (KCNH2)) [%] | IC50 [6] [nM] | also measured
1 | CCOc1ccccc1N1CCN(CCCCCn2cnc3sc(C)c(C)c3c2=O)CC1 | 2.99 |  |  |  |  |  | Ki [2]: 1.03 nM
2 | OC(CCN1CCC(c2ccc(F)cc2-c2ccccc2)CC1)c1c[nH]c2ccc(F)cc12 (centres undefined) |  | 530 |  |  |  |  | 
3 | CSc1ccccc1N1CCN(CCCCCC(=O)NC2CCCc3ccccc32)CC1 (centres undefined) | 0.22 |  |  |  |  |  | Ki [2]: 52.7 nM
4 | COc1ccc2c(c1)[C@]13CCCC[C@@H]1[C@H](C2)N(C)CC3 [DEXTROMETHORPHAN] |  |  | 28 |  |  |  | 
5 | COc1ccccc1N1CCN(CCCCCC(=O)NC2CCCc3ccccc32)CC1 (centres undefined) | 6.64 |  |  |  |  |  | Ki [2]: 8.6 nM
6 | CSc1ccccc1N1CCN(CCCc2c[nH]c3ccc(C#N)cc23)CC1 |  |  | 127 | 208 | 97.6 |  | 
7 | CCOc1ccccc1N1CCN(CCCc2c[nH]c3ccc(F)cc23)CC1 |  | 160 |  |  |  | 0.85 | 
8 | COc1ccccc1N1CCN(CCCc2c[nH]c3ccc(F)cc23)CC1 |  | 310 |  |  |  | 0.85 | 
9 | CSc1ccccc1N1CCN(CCCCCc2c[nH]c3ccc(F)cc23)CC1 |  |  | 90.1 | 83.2 | 84.5 |  | 
10 | Fc1ccc(C2CCN(CCCc3c[nH]c4ccc(F)cc34)CC2)c(-c2ccccc2)c1 | 5.7 | 160 | 27.8 |  |  | 251 | Ki [2]: 26.8 nM
11 | Fc1ccc(C2=CCN(CCCc3c[nH]c4ccc(F)cc34)CC2)c(-c2ccccc2)c1 |  |  | 22.1 | 202 | 82.6 |  | 
12 | CCSc1ccccc1N1CCN(CCCc2c[nH]c3ccc(F)cc23)CC1 |  |  | 39.5 | 47.6 | 90.1 |  | 
13 | CSc1ccccc1C1CCN(CCCc2c[nH]c3ccc(F)cc23)CC1 |  |  | 24.5 | 62.3 | 96.6 |  | 
14 | NC(=O)c1ccc2[nH]cc(CCCN3CCC(c4ccc(F)cc4-c4ccccc4)CC3)c2c1 | < 0.04 |  |  |  |  | > 10000 | 
15 | CSc1ccccc1N1CCN(CCCCc2c[nH]c3ccc(F)cc23)CC1 |  |  | 27.8 | 156 | 82.7 |  | 
16 | CSc1ccccc1N1CCN(CCCc2c[nH]c3ccc(F)cc23)CC1 |  | 390 |  |  |  | 1.9 | 

Reference: ChEMBL document CHEMBL5584220, “Design, synthesis, and biological evaluation of aralkyl piperazine and piperidine derivatives targeting SSRI/5-HT1A/5-HT7” (Bioorg Med Chem, 2024)
